The text below walks through data of patent publication US5487898A, “Compositions and method for the sublingual or buccal administration therapeutic agents” (Abbott Laboratories, priority 1994, dated 1996).

The conditions of data set [1]: dog, in vivo.
The conditions of data set [2]: dog, in vivo. As to the method:
The dose of administered leuprolide acetate mid the measurement of plasma leuprolide concentration are the same as described for FIG. 1.
In this and subsequent Examples, bioavailability is calculated and expressed either in terms of Area Under Curve (AUC) or as percent (%) bioavailability. AUC is determined by calculating the area under the curve of plots of time (X-axis) versus plasma concentration (Y-axis) of the administered polypeptide. Typically, AUC is determined over a 6 (0-6) or 8 (0-8) hour period. Percent bioavailability is calculated as the ratio [formula] Increases in AUC and/or bioavailability indicate increased bioavailability of the administered polypeptide.
In one such composition the pH value was adjusted to a value of about 7.0 with NaOH.
The liquid compositions were sublingually administered to dogs (0.1 ml/10 kg body wt) and the plasma levels of leuprolide measured over 8 hours.
This is another data set of the same source.

Like-named read-outs stand apart in the source and are kept apart here.

Regarding `CCNC(=O)[C@@H]1CCCN1C(=O)[C@H](CCCNC(=N)N)NC(=O)[C@H](CC(C)C)NC(=O)[C@@H](CC(C)C)NC(=O)[C@H](Cc1ccc(O)cc1)NC(=O)[C@H](CO)NC(=O)[C@H](Cc1c[nH]c2ccccc12)NC(=O)[C@H](Cc1c[nH]cn1)NC(=O)[C@@H]1CCC(=O)N1` [leuprolide acetate, 5-oxo-L-prolyl-L-histidyl-L-tryptophanyl-L-seryl-L-tyrosyl-D-leueyl-L-leueyl-L-arginyl-L-prolyl-ethylamide], the “bioavailability, AUC 0-8 hours vs peppermint oil concentration (FIG. 4)” value in data set [1] is “increases the bioavailability”. In addition, the “bioavailability vs benzoic acid concentration (FIG. 3)” value in data set [2] is recorded as “directly proportional to benzoic acid concentration”. Besides, the “Percent Bioavailability” value was determined as 24.5% in data set [2] (pH 5.6) and 2.7% in data set [2] (pH 7).
